# Experimental data from patent publication US20250186329A1, “A SKIN BRIGHTENING COMPOSITION” (Conopco, Inc., d/b/a UNILEVER, priority 2022, published 2025).
# Marks after values point to notes of the source that are not given here.
# Test system: co-cultures of HaCaT keratinocytes and melanocytes (neonatal primary human epidermal melanocytes)
# Experiment: Melanin content assay (% cellular melanin vs control) in keratinocyte/melanocyte co-cultures
# Type: cell-based
# Details: percentage cellular melanin vs control; 72 h of active treatment; OD at 405 nm; active concentrations (wt %) as given per example
# Description: Various samples containing actives were prepared and the % cellular melanin content was measured. The protocol for measuring the cellular melanin is summarized below:
# Neonatal primary human epidermal melanocytes were sourced from Life Technologies. Melanocytes were maintained in Medium 254 supplemented with human melanocyte growth supplement (MGM). HaCaT keratinocytes were maintained in DMEM medium containing 10% heat inactivated FBS. All media were also supplemented with 10 U/mL penicillin G and 0.1 mg/mL streptomycin sulphate. Both cell types were maintained at 37° C. in a humidified incubator with 5% CO2 atmosphere. Maintenance and sub-culturing of cells were carried out as per the manufacturer's instructions.
# For setup of co-cultures, 40,000 cells each of HaCaT keratinocytes and melanocytes were mixed in 1 mL of a 1:1 mix of MGM:KGM (KGM: Epilife medium supplemented with human keratinocyte growth supplement) and seeded as such per well, in 12 well Nunc plates.
# Actives were prepared in media and test concentrations were added to cells along with relevant controls 24 h post seeding. After 72 h of active treatment, cell viability (using calcein method) and measurement of cellular melanin content was determined as described below.
# After calcein fluorescence readings were obtained, cells were drained and fresh 0.15 mL of 1N NaOH (in 10% DMSO) per well was added. Cells were lysed by resuspension and incubation (60° C. for 1 h). Then, 0.1 mL of this lysate was transferred to a fresh 384-well plate and OD was measured at 405 nm in a TECAN M1000 plate reader. Melanin content was calculated as percentage cellular melanin vs control.
row,Molecule,% cellular melanin
1,Inulin [Example C],96%
2,Inulin [B],86%
3,"CCCCCCc1ccc(O)cc1O [Example E, 4-hexyl resorcinol, reference compound]",69* %
